Patent publication US7666898B2, “Multivalent indole compounds and use thereof as phospholipase-A2 inhibitors” (Ilypsa, Inc., priority 2005, dated 2010)

Experiments:
[1] = Toxicology, 5-day daily oral gavage; format: in vivo, mice; conditions: 5 consecutive days
From the text: The purpose of this study was to evaluate the toxicity of indole and indole-related Test Articles when administered daily via oral gavage to mice for 5 consecutive days.
Assessment of toxicity was based on mortality; clinical signs, body weight, food consumption, clinical pathology, and macroscopic pathology data.

[2] = tested on: LDL receptor knockout mice (B6.129S7-Ldlrtm1Her); test: LDL receptor knockout mouse model (Example 15); format: in vivo; conditions: low fat control diet D12328, 25 or 90 mg/kg/d, vs low fat diet alone
From the text: Mice lack an enzyme found in humans, cholesterol ester transfer protein (CETP), which is responsible for the transfer of cholesterol from high density lipoproteins (HDL) to the ApoB-containing lipoproteins such as very low density lipoproteins (VLDL) and low density lipoproteins (LDL). Consequently, LDL cholesterol levels in wild-type mice are very low compared to those seen in humans. The low density lipoprotein receptor (LDLR) is involved with clearing LDL and lipoprotein remnants containing apoE. If the LDLR is inactivated, LDL cholesterol levels rise to levels seen in humans. On a normal rodent diet, the LDL cholesterol levels in LDLR deficient mice are elevated compared to wild-type mice. If the LDLR deficient mice are fed a Western-type diet containing elevated levels of fats and cholesterol, then the total cholesterol and LDL cholesterol levels become highly elevated and can exceed 1000 mg/dL and 300 mg/dL, respectively. This model was used to investigate the effects of indole and indole-related Test Articles. Avandia (rosiglitazone) and Zetia (ezetimibe) were used as control test articles.
Male LDL receptor knockout mice (B6.129S7-Ldlrtm1Her) were obtained from Jackson Labs (Bar Harbor, Me.). […] Diet and water was provided ad libitum throughout the course of the study. Animals were acclimated for at least seven days, and then randomized by body weight into fourteen groups of seven animals each. Each group of animals was placed on diets with and without Test Articles as described in Table 13. All diets other than Laboratory Rodent Diet 5001 were provided by Research Diets (New Brunswick, N.J.).
In these studies and the accompanying figures, Diet D12328 from Research Diets is referred to as the “Low Fat” or Control diet, while Diet D12079B from Research Diets is referred to as the “Western” diet. Groups 1-7 were fed diet D12328 that contained either no drug (Group 1) or varying amounts of Test Articles (Groups 2-7). Groups 8-14 were fed diet D12079 that contained either no drug (Group 8) or varying amounts of Test Articles (Groups 9-14). The Test Article content was calculated such that ad libitum consumption by the animals would deliver doses (in mg of Test Article per Kg animal weight per day) approximating those listed in Table 13.
Animals were maintained on the diets for eight weeks. Body weights were recorded weekly. Blood was drawn within 1-2 hrs of lights-on, without fasting. The serum was analyzed for total cholesterol, LDL cholesterol, HDL cholesterol, triglycerides (TG), free fatty acid (FFA) and lysophospholipid (LPC) content.
Statistical analyses were performed using GraphPad Prism 4.03. (GraphPad Software, Inc., San Diego, Calif.). Two sets of statistical analyses were performed. […]

[3] = Mouse pharmacokinetic study (Example 13); conditions: for bioavailability: male, CD-1, mouse, in vivo, po, 30 mg/kg
Procedure: The plasma exposure of male CD-1 mice to indole and indole-related test articles (TAs) following intravenous (IV, 3 mg/kg) and oral (PO, 30 mg/kg) routes of administration was measured. This model was used to investigate the bioavailability of indole and indole-related TAs in mouse.
Two groups (N=18 and 27) of male CD-1 mice were used for the study.
The components were mixed by vortexing and sonicating in a warming bath for 60 minutes. Animals were fasted overnight prior to start of the study. On study day (1), formulations were sonicated for an hour to make sure that no visible particles were present prior to dosing, or if present were evenly distributed in suspension. Formulated test article were stirred continuously during dosing.
All animals were weighed on study day (1) and the body weights were recorded and used for dose calculation. […] Blood samples (0.5 mL) were collected at specified time intervals into labeled, yellow-capped Microtainer tubes. The tubes were centrifuged (8,000×g, 10 min). Serum was then pipetted off into labeled Eppendorf® tubes and frozen at −80° C. Clinical observations were recorded as needed.
Analysis of serum samples was performed by LC/MS/MS (Waters Quattro Premier, Milford, Mass.). Areas under curves (AUC) were calculated using Graphpad Prism Version 4. Bioavailability was calculated using the following equation: (Bioavailability)=(AUC0-t, oral/AUC0-t, iv)×(Doseiv/Doseoral)×100 where AUC0-t=total area under curve at the last measurable time point

[4] = tested on: C57BL/6J mouse model of obesity; test: Mouse diet-induced obesity model (Example 14); format: in vivo; conditions: low fat control diet D12328, 25 or 90 mg/kg/d, vs low fat diet alone
From the text: The high-fat diet-fed C57BL/6J mouse model of human diabetes, originally introduced by Surwit and colleagues (Surwit, R S, et al. (1988) “Diet-induced type II diabetes in C57BL/6J mice”, Diabetes 37: 1163-1167) is a widely accepted, clinically relevant, polygenic model that induces obesity, dyslipidemia, glucose- and insulin-resistance as early as 3 weeks after commencing the high fat diet (Winzell, M S and Ahren, B (2004) “The high-fat diet-fed mouse: a model for studying mechanisms and treatment of impaired glucose tolerance and type 2 diabetes”, Diabetes 53 Suppl 3: S215-219). This model was used to investigate the effects of indole and indole-related Test Articles. Avandia (rosiglitazone) was used as a control Test Article.
Female C57Black/6J mice (5-6 weeks old) were obtained from Jackson laboratories (Bar Harbor, Me.). […] Diet and water was provided ad libitum throughout the course of the study. Animals were acclimated for at least seven days, and then randomized by weight into twelve groups of eight animals each. Each group of animals was placed on diets with and without Test Articles as described in Table 12. All diets other than Laboratory Rodent Diet 5001 were provided by Research Diets (New Brunswick, N.J.).
In these studies and the accompanying figures, Diet D12328 from Research Diets is referred to as the “Low Fat” or Control diet/chow, while Diet D12331 from Research Diets is referred to as the “High Fat” diet. Groups 1-6 were fed diet D12328 that contained either no drug (Group 1) or varying amounts of Test Articles (Groups 2-6). Groups 7-12 were fed diet D12331 that contained either no drug (Group 7) or varying amounts of Test Articles (Groups 8-12). The Test Article content was calculated such that ad libitum consumption by the animals would deliver doses (in mg of Test Article per kg animal weight per day) approximating those listed in Table 12.
Animals were maintained on the diets for up to eleven weeks. Body weights were recorded weekly. Blood was drawn within 1-2 hrs of lights-on. without fasting. The serum was analyzed for glucose, total cholesterol, triglycerides (TG) and lysophospholipid (LPC) content.
Statistical analyses were performed using GraphPad Prism 4.03. (GraphPad Software, Inc., San Diego, Calif.). Two sets of statistical analyses were performed. First, the Low Fat Chow, no treatment group was compared by student's two-tailed T-test against the High Fat, High Sucrose diet, no treatment group. […] Second, all treatment groups on the High Fat, High Sucrose diet were compared to the no-treatment group on that diet by 1-way ANOVA, followed by a Dunnett's post-test.

[5] = molecular target: T1, mouse group 1B PLA2 (mps PLA2) (Mus musculus, UniProt Q9Z0Y2); test: Fluorimetric PLA2 inhibition assay, mouse (Example 8); format: biochemical; conditions: read-out: ILYPSA % inhibition at 15 μM mps PLA2
T1 construct: made in house; host or cells: E. coli
From the text: (§1) In this example, a fluorimetric assay procedure was used to evaluate the indole and indole-related compounds of the invention as inhibitors of group 1B phospholipase A2 (PLA2) from human, mouse and porcine.
(§2) In general, this assay used a phosphatidylmethanol substrate with a pyrene fluorophore on the terminal end of the sn-2 fatty acyl chain. Without being bound by theory, close proximity of the pyrenes from neighboring phospholipids in a phospholipid vesicle caused the spectral properties to change relative to that of monomeric pyrene. Bovine serum albumin was present in the aqueous phase and captured the pyrene fatty acid when it is liberated from the glycerol backbone owing to the PLA2-catalyzed reaction. […] The effect of a given inhibitor and inhibitor concentration on human, mouse and porcine phospholipase was determined.
(§3) Recombinant human and mouse group 1B PLA2 were cloned and expressed in E. coli as insoluble inclusion bodies. The inclusion bodies were isolated and purified by sonicating cell pellet in lysis buffer (50 mM Tris-HCl pH 7.0, 250 mM NaCl, 0.5% Triton 100), centrifugation at 12,000×g, and washing three times in washing buffer (20 mM Tris-HCl pH 7.0, 250 mM NaCl, 0.5% Triton 100). Then the inclusion bodies were dissolved in dissolving buffer (50 mM Tris-HCl pH 7.0, 250 mM NaCl, 6 M Guanidine-HCl, 1 mM DTT) and dialyzed four times against 10 volumes of refolding buffer (20 mM Tris-HCl pH 7.0, 250 mM NaCl, 0.5M Guanidine-HCl, 5% (w/w) Glycerol, 2 mM reduced glutathione and 0.4 mM oxidized glutathione) at 4° C. The correctly refolded proteins were concentrated using Amicon Stirred cell under nitrogen pressure (<70 psi) and dialyzed against 10 volumes of 50 mM Tris-HCl pH 7.0, 250 mM NaCl and 5% (w/w) glycerol. Human and mouse group 1B PLA2 were further purified by High S ion exchange and gel filtration columns.
(§4) The following reagents were prepared: • 1. PPyrPM stock solution (1 mg/ml) in toluene:isopropanol (1:1) • 2. […]
(§5) The following procedure was performed to evaluate the inhibitory potency of the evaluated compounds. • 1. […]

[6] = molecular target: T2, human group 1B PLA2 (hps PLA2) (Homo sapiens, UniProt P04054); test: Fluorimetric PLA2 inhibition assay, human (Example 8); format: biochemical; conditions: read-out: ILYPSA % inhibition at 15 μM hps PLA2
T2 construct: made in house; host or cells: E. coli
From the text: as §1, §2, §3, §4, §5

[7] = molecular target: T3, human non-pancreatic PLA2 (hnp PLA2) (Homo sapiens, UniProt P14555); conditions: reported literature data; cited from earlier work
T3 sequence (P14555 21-144): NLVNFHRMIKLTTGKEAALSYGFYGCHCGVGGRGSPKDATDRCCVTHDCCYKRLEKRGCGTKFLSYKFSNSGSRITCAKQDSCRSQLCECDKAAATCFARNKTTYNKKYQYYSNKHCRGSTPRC

[8] = molecular target: human pancreatic secreted PLA2 (hps PLA2) (Homo sapiens, UniProt P04054); conditions: reported literature data; cited from earlier work
[9] = molecular target: porcine pancreatic secreted PLA2 (pps PLA2) (Sus scrofa, UniProt P00592); conditions: reported literature data; cited from earlier work
Sequence of porcine pancreatic secreted PLA2 (pps PLA2) (P00592 23-146): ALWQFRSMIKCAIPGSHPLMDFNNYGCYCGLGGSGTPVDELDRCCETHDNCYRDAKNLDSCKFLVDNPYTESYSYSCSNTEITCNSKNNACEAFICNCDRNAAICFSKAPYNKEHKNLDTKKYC

Sequence of human pancreatic secreted PLA2 (hps PLA2) (P04054 23-148): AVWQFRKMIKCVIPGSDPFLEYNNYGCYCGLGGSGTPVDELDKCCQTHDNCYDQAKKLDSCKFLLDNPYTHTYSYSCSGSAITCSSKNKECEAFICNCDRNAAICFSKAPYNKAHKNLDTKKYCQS
T2 sequence (P04054 23-148): as above
T1 sequence (Q9Z0Y2 23-146): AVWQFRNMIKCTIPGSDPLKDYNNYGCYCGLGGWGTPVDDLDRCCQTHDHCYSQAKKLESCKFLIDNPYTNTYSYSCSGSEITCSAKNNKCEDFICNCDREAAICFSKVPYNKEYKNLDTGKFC

Q: Which “clinical pathology data, treated groups vs vehicle control group” value [1] does the source give for `Cc1c(C(=O)C(N)=O)c2c(OCC(=O)NS(=O)(=O)CCCC(=O)O)cccc2n1Cc1ccccc1` [ILY-IV-40, 4-[2-(3-Aminooxalyl-1-benzyl-2-methyl-1H-indol-4-yloxy)-acetylsulfamoyl]-butyric acid] here?
A: no differences

Q: What about the “effect in animals fed a low fat control diet containing test article” value (from here on “effect”) [2] of the same compound?
A: No or little effect

Q: And the “Bioavailability (%)” value ([3]; PO 30 mg/kg vs IV 3 mg/kg, CD-1 mice, serum LC/MS/MS)?
A: 0.50%

Q: What about the “effect” value [4] of the same compound?
A: No or little effect

Q: Which results are given for `Cc1c(C(=O)C(N)=O)c2c(OC(Br)(C(N)=O)C(F)(F)F)cccc2n1Cc1ccccc1` (centres unmarked) [ILY-IV-53, 2-(3-Aminooxalyl-1-benzyl-2-methyl-1H-indol-4-yloxy)-2-bromo-3,3,3-trifluoro-propionamide]?
A: inhibition at 15 µM [5]: 49.7%; inhibition at 15 µM [6]: 49%

Q: With `CCc1c(C(=O)C(N)=O)c2c(OCC(=O)O)cccc2n1Cc1ccccc1-c1ccccc1` as the compound, how does the IC50 [7] read?
A: 0.004 ± 0.001 µM

Q: And the IC50 [8]?
A: 0.062 µM

Q: For `Cc1c(C(=O)C(N)=O)c2c(CCC(=O)O)cccc2n1Cc1ccccc1`, which IC50 [8] is on record?
A: > 100 µM

Q: Which “IC50 (μM) pps PLA2” value [9] does the source give for `Cc1c(CC(=O)NN)c2cc(OCCCC(=O)O)ccc2n1Cc1ccccc1` here?
A: no activity

Q: What about the “IC50 (μM) hps PLA2” value [8] of the same compound?
A: no activity

Q: Which “clinical pathology data, treated groups vs vehicle control group” value [1] does the source give for `Cc1c(C(=O)C(N)=O)c2c(OCC(=O)O)cccc2n1CCCCCCCCCCCCOc1ccc(C(C)(C)c2ccc(OCCCCCCCCCCCCn3c(C)c(C(=O)C(N)=O)c4c(OCC(=O)O)cccc43)cc2)cc1` [ILY-v-30, 2,2′-(1,1′-(12,12′-(4,4′-(propane-2,2-diyl)bis(4,1-phenylene))bis(oxy)bis(dodecane-12,1-diyl))bis(3-(2-amino-2-oxoacetyl)-2-methyl-1H-indole-4,1-diyl))bis(oxy)diacetic acid] here?
A: no differences

Q: What about the “effect” value [2] of the same compound?
A: No or little effect

Q: What about the “effect” value [4] of the same compound?
A: No or little effect

Q: For `Cc1c(CC(N)=O)c2c(OCCCC(=O)O)cccc2n1Cc1ccccc1`, which IC50 [8] is on record?
A: 3.66 µM

Q: With `NC(=O)Cc1c(Br)n(Cc2ccccc2)c2ccc(OCCCC(=O)O)cc12` as the compound, how does the IC50 [9] read?
A: 2.86 µM

Q: And the IC50 [8]?
A: 15.9 µM

Q: Which bioavailability [3] does the source give for `Cc1c(C(=O)C(N)=O)c2c(OCC(=O)O)cccc2n1CCCCCCCCCCCCOc1ccccc1OCCCCCCCCCCCCn1c(C)c(C(=O)C(N)=O)c2c(OCC(=O)O)cccc21` [ILY-v-27, [3-Aminooxalyl-1-(12-{2-[12-(3-aminooxalyl-4-carboxymethoxy-2-methyl-indol-1-yl)-dodecyloxy]-phenoxy}-dodecyl)-2-methyl-1H-indol-4-yloxy]-acetic acid] here?
A: 1.49%

Q: What does the source list for `NC(=O)Cc1c(Br)n(Cc2ccccc2)c2ccc(OCCCP(=O)(O)O)cc12`?
A: IC50 [9]: 2.2 µM; IC50 [8]: 6.2 µM

Q: Which bioavailability [3] does the source give for `Cc1c(C(=O)C(N)=O)c2c(OCC(=O)O)cccc2n1CCCCCCCCCCCCN(CCCCCCCCCCCCn1c(C)c(C(=O)C(N)=O)c2c(OCC(=O)O)cccc21)Cc1ccccc1` [ILY-v-31, 2,2′-(1,1′-(12,12′-(benzylazanediyl)bis(dodecane-12,1-diyl))bis(3-(2-amino-2-oxoacetyl)-2-methyl-1H-indole-4,1-diyl))bis(oxy)diacetic acid] here?
A: 5.15%

Q: Which “clinical pathology data, treated groups vs vehicle control group” value [1] does the source give for “2,2′,2″-(1,1′,1″-(12,12′,12″-(benzene-1,3,5-triyltris(oxy))tris(dodecane-12,1-diyl))tris(3-(2-amino-2-oxoacetyl)-2-methyl-1H-indole-4,1-diyl))tris(oxy)triacetic acid [ILY-v-32]” here?
A: no differences

Q: What about the “effect” value [2] of the same compound?
A: No or little effect

Q: What about the “effect” value [4] of the same compound?
A: No or little effect

Q: For `CCc1c(CC(N)=O)c2cc(SCCCC(=O)O)ccc2n1Cc1ccccc1`, which IC50 [8] is on record?
A: 16 µM

Q: For `Cc1c(CC(N)=O)c2cc(CCCC(=O)O)ccc2n1Cc1ccccc1`, which IC50 [8] is on record?
A: 94 µM

Q: With `CCc1c(CC(N)=O)c2cc(OCCCP(=O)(O)O)ccc2n1Cc1cccc(Cl)c1` as the compound, how does the IC50 [8] read?
A: 46.2 µM

Q: For `Cc1c(C(=O)C(N)=O)c2c(OCC(=O)O)cccc2n1CCCCCCCCCCCCOc1ccccc1-c1ccccc1OCCCCCCCCCCCCn1c(C)c(C(=O)C(N)=O)c2c(OCC(=O)O)cccc21` [ILY-v-37, [3-Aminooxalyl-1-(12-{2′-[12-(3-aminooxalyl-4-carboxymethoxy-2-methyl-indol-1-yl)-dodecyloxy]-biphenyl-2-yloxy}-dodecyl)-2-methyl-1H-indol-4-yloxy]-acetic acid], which “clinical pathology data, treated groups vs vehicle control group” value [1] is on record?
A: no differences

Q: With `Cc1c(C(=O)C(N)=O)c2c(/C=C/C(=O)O)cccc2n1Cc1ccccc1` as the compound, how does the IC50 [8] read?
A: > 100 µM

Q: With `Cc1c(CC(N)=O)c2cc(OCc3ccc(C(=O)O)cc3)ccc2n1Cc1ccccc1` as the compound, how does the IC50 [9] read?
A: 7.5 µM

Q: What about the IC50 [7] of the same compound?
A: 0.147 ± 0.009 µM

Q: And the IC50 [8]?
A: 22.5 µM

Q: Which “clinical pathology data, treated groups vs vehicle control group” value [1] does the source give for `Cc1c(C(=O)C(N)=O)c2c(OCC(=O)O)cccc2n1CCCCCCCCCCCCSCCCCCCCCSCCCCCCCCCCCCn1c(C)c(C(=O)C(N)=O)c2c(OCC(=O)O)cccc21` [ILY-v-26, 2,2′-(1,1′-(12,12′-(Octane-1,8-diylbis(sulfanediyl))bis(dodecane-12,1-diyl))bis(3-(2-amino-2-oxoacetyl)-2-methyl-1H-indole-4,1-diyl))bis(oxy)diacetic acid] here?
A: no differences

Q: And the “effect” value [2]?
A: No or little effect

Q: And the “effect” value [4]?
A: No or little effect
